In patent publication US20180290977A1, “KDM4 INHIBITORS” (Albert-Ludwigs-University Freiburg, priority 2017, published 2018):
Like-named read-outs stand apart in the source and are kept apart here.

Key:
KDM4B = target: T1, KDM4B (Homo sapiens, UniProt O94953); assay: KDM demethylase inhibition (IC50); assay type: biochemical
T1 sequence (O94953 1-1096): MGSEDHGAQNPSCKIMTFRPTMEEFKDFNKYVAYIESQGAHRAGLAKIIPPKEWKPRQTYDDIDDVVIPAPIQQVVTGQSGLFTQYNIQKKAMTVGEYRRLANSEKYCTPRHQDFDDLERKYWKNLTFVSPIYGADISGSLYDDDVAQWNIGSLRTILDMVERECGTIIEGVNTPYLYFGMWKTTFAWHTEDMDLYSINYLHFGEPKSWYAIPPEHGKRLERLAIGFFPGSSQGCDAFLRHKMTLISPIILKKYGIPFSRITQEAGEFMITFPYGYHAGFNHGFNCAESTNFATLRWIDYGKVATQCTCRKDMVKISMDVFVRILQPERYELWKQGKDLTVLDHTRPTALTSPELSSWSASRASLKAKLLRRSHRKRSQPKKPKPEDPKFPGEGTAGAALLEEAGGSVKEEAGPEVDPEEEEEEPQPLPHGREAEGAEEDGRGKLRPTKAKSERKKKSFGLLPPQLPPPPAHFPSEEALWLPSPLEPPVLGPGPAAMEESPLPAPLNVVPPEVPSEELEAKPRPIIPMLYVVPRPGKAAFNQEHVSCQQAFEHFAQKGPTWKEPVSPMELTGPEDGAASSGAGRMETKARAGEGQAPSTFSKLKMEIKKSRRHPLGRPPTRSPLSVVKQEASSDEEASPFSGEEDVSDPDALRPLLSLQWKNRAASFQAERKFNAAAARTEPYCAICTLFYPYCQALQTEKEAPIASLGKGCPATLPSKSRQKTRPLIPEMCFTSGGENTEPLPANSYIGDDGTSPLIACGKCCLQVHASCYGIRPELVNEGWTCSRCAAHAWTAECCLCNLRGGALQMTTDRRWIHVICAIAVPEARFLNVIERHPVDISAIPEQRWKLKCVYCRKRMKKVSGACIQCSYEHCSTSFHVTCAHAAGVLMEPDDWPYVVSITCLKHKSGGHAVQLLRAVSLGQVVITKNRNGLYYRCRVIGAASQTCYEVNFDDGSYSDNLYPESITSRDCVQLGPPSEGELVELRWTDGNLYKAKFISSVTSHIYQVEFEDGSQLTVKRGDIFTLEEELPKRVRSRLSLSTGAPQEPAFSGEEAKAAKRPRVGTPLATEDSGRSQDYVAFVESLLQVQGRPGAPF

KDM2B = target: T2, KDM2B (Homo sapiens, UniProt Q8NHM5); assay: KDM demethylase inhibition (IC50); assay type: biochemical
T2 sequence (Q8NHM5 1-1336): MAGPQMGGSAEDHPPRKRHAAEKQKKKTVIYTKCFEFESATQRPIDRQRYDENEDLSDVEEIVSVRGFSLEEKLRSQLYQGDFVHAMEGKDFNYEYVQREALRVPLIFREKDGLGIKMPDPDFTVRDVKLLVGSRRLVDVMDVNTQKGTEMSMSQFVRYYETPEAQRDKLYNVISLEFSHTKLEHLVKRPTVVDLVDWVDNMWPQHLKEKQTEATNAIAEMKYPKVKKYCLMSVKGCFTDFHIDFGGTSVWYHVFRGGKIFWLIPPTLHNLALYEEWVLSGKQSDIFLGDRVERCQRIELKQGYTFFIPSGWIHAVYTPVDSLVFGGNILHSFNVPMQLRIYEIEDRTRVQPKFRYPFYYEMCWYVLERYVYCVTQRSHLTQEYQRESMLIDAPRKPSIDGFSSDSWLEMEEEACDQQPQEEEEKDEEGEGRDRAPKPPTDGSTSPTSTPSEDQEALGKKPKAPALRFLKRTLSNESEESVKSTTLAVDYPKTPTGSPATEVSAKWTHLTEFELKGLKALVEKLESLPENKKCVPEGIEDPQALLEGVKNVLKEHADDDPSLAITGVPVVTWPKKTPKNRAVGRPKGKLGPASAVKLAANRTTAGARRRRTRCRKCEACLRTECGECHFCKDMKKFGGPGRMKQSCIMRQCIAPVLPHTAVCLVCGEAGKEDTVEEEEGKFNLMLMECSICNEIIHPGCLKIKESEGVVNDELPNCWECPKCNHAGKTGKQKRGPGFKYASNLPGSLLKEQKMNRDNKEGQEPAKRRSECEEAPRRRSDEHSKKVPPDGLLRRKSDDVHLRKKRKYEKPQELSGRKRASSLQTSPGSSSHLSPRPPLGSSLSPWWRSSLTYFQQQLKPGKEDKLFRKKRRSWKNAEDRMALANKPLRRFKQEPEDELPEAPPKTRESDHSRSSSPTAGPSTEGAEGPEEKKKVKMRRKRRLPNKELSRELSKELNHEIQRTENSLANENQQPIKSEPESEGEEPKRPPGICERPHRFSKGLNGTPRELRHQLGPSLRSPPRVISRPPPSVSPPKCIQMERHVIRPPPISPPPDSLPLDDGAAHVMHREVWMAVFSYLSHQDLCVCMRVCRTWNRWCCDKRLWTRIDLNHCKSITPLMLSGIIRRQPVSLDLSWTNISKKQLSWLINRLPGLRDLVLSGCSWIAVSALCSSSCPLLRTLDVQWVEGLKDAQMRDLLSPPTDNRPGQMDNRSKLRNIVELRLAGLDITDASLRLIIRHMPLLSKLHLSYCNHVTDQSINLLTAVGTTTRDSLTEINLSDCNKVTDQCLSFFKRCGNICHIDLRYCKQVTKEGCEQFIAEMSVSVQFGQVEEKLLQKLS

CN(c1ccccc1)c1ccc2c(c1)CCC[C@H]2CNc1cnccc1C(=O)O [Compound I, 3-({[(1R)-6-[methyl(phenyl)amino]-1,2,3,4-tetrahydronaphthalen-1-yl]methyl}amino)pyridine-4-carboxylic Acid]
IC50 (KDM4B; read-out: Compound I IC50): 56 nM
IC50 (KDM4B; read-out: IC50, demethylase activity): < 105 nM
IC50 (KDM2B): > 10000 nM
